Reference: US20220049015A1, “COMPOSITIONS AND METHODS FOR THE TREATMENT AND/OR PREVENTION OF HER2+ CANCERS” (DUKE UNIVERSITY, priority 2018, published 2022)

System: MM3MG-HER2Δ16 cells
Assay: In vitro ADCP and ADCC by bone marrow derived macrophages (BMDM)
Format: cell-based, mouse
Conditions: Concanamycin A 1 μM in BMDM co-culture
Method: MM3MG-HER2Δ16 cells were labeled with Brilliant Violet 450 Dye, and co-cultured with BMDM (3:1 ratio) with control or anti-HER2 antibodies (10 μg/mL). ADCP rates were measured by percentage of BMDM uptake of labeled tumor cells (CD45+and BV450+), and Antibody-dependent-cellular-cytotoxicity (ADCC) rates were measured by percentage of dying free tumor cells (CD45− and LIVE/DEAD stain+). […] All data represent mean ±SEM, **P<0.01, ***P<0.001, ****P<0.0001.
ADCP and ADCC by macrophages—Bone marrow derived macrophages (BMDM) were generated from mouse tibia, differentiated for 10 days with 50 ng/mL mouse MCSF (Peprotech 315-02). Briefly, 50 million bone marrow cells were plated in 10 cm^2 tissue culture dish with MCSF on day 0. Unattached cells in supernatant were removed and fresh media+MC SF were added on day 3, day 6 and day 9. BMDM were used for ADCP/ADCC assays on day 10. Tumor cells MM3MG-HER2416 were labeled with Brilliant Violet 450 Dye (BD 562158) according to manufacturer's protocol, and incubated with control or anti-HER2 antibodies (10 μg/mL) in 96-wells (100,000 cells/well) for 30 minutes at 37° C. BMDM were then added for co-culture at a 3:1 ratio of Tumor vs BMDM. After 2 hours co-culture, phagocytosis of BV450-labeled tumor cells by BMDM were analyzed by FACS with CD45-APC staining and Live-death (Red) staining. […]

C/C=C/[C@H]1O[C@@](O)([C@@H](C)[C@H](O)[C@H](C)[C@H]2OC(=O)/C(OC)=C/C(C)=C/[C@@H](C)[C@@H](O)[C@@H](CC)[C@@H](O)[C@H](C)C/C(C)=C/C=C/[C@@H]2OC)C[C@@H](O[C@H]2C[C@@H](O)[C@H](OC(N)=O)[C@@H](C)O2)[C@@H]1C [Concanamycin A]
effect of ADCC inhibitor on HER2 mAb activities: had no effect on HER2 mAb activities
